Source: ChEMBL document CHEMBL5608259 (J Med Chem, 2024)
pIC50: −log10 of the molar value. Active and inactive are the calls of the source. No cut-off for these calls is given here.

Legend:
[1] = molecular target: T1, Histone-arginine methyltransferase CARM1 (Homo sapiens) (UniProt Q86X55); assay: Inhibition of human PRMT4 using histone H3 as substrate and SAM as cofactor at 10 uM by radiometric HotSpot assay relative to control
T1 sequence (whole entry): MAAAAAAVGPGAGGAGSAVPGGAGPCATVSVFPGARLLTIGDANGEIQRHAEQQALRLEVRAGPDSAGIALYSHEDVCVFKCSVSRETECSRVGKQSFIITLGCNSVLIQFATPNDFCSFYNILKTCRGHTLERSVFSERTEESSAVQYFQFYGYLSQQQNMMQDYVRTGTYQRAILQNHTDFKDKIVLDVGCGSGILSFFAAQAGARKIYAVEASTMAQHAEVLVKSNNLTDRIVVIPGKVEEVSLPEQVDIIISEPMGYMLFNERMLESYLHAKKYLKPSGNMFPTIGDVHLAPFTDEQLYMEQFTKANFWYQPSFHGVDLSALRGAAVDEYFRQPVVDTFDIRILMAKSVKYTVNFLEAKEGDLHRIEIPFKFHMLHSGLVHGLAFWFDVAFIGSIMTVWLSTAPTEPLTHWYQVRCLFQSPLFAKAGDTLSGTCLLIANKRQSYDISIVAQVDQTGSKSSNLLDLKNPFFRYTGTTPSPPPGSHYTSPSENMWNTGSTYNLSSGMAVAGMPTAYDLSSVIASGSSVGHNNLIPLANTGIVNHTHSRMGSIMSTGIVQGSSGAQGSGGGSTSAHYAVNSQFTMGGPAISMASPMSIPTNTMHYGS

[2] = molecular target: T2, Protein arginine N-methyltransferase 3 (Homo sapiens, UniProt O60678); assay: Inhibition of human PRMT3 using H4-21peptide as substrate at 10 uM incubated for 10 mins by fluorescence based analysis relative to control
Target sequence in this assay (O60678 2-531 limits assumed): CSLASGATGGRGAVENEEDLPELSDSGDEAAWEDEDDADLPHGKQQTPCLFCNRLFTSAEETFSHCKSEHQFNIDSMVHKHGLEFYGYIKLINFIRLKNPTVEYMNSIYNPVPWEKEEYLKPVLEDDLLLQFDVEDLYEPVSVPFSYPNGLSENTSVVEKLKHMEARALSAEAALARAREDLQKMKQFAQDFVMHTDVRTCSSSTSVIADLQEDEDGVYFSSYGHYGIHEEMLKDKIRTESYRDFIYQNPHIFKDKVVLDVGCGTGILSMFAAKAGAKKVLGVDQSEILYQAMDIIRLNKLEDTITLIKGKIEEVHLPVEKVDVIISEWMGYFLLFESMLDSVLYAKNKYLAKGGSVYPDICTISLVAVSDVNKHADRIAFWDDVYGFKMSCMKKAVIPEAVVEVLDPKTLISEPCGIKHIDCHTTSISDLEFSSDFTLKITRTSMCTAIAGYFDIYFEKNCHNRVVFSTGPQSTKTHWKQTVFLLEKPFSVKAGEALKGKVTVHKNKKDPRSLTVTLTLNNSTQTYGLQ

[3] = molecular target: T3, Protein arginine N-methyltransferase 8 (Homo sapiens, UniProt Q9NR22); assay: Inhibition of human PRMT8 using Histone H4 as substrate and SAM as cofactor at 10 uM by radiometric HotSpot assay relative to control
Target sequence in this assay (Q9NR22 2-394 limits assumed): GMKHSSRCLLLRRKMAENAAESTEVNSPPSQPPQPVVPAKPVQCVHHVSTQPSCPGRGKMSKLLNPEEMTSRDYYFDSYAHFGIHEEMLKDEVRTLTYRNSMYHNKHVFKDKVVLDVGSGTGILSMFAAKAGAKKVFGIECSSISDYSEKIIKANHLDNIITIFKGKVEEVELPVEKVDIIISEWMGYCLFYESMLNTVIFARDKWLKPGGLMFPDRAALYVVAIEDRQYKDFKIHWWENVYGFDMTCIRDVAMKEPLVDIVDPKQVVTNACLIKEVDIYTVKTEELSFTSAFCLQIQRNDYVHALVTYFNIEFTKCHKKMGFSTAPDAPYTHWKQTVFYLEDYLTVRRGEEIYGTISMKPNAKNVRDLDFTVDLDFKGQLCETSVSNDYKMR

[4] = molecular target: T4, Protein arginine N-methyltransferase 1 (Homo sapiens, UniProt Q99873); assay: Inhibition of human PRMT1 using H4-21peptide as substrate at 10 uM incubated for 10 mins by fluorescence based analysis relative to control
Target sequence in this assay (Q99873 whole entry, looked up): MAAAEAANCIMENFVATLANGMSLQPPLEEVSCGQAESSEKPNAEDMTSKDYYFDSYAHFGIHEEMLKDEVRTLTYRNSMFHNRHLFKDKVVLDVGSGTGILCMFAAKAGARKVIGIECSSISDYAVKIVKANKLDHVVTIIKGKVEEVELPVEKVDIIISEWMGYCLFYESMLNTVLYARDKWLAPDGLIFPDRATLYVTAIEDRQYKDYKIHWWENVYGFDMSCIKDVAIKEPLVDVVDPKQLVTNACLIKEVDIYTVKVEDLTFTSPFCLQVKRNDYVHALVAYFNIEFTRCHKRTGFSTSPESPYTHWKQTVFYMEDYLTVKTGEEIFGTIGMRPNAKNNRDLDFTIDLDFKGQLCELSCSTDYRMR

[5] = molecular target: Protein arginine N-methyltransferase 6 (Homo sapiens, UniProt Q96LA8); assay: Inhibition of human PRMT6 using GST-GAR as substrate and SAM as cofactor at 10 uM by radiometric HotSpot assay relative to control
MDA-MB-231 = assay: Inhibition of colony formation in human MDA-MB-231 cells at 10 uM incubated for 2 weeks by crystal violet staining based analysis relative to control; format: functional; conditions: MDA-MB-231, 336 h
[6] = molecular target: T5, Histone-arginine methyltransferase CARM1 (Homo sapiens, UniProt Q86X55); assay: Inhibition of human PRMT4 using histone H3 as substrate and SAM as cofactor by radiometric HotSpot assay
T5 sequence (Q86X55 whole entry): T1 sequence (whole entry)

[7] = molecular target: T4, Protein arginine N-methyltransferase 1; assay: Inhibition of human PRMT1 using Histone H4 as substrate and SAM as cofactor by radiometric HotSpot assay
Target sequence in this assay (Q99873 whole entry): as the sequence (Q99873 whole entry, looked up) above

[8] = molecular target: T3, Protein arginine N-methyltransferase 8; assay: Inhibition of human PRMT8 using Histone H4 as substrate and SAM as cofactor by radiometric HotSpot assay
Target sequence in this assay (Q9NR22 whole entry): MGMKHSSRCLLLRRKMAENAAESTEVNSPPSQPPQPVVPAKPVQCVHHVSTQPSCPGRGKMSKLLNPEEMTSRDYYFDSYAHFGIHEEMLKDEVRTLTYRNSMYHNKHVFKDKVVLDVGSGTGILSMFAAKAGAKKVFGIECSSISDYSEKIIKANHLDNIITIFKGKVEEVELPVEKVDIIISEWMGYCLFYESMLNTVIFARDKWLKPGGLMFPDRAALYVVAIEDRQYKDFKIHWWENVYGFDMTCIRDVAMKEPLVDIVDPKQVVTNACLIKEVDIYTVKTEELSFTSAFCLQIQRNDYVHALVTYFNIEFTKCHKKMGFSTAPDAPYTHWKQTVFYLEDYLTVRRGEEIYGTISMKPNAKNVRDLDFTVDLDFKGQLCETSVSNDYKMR

[9] = molecular target: T6, Protein arginine N-methyltransferase 7 (Homo sapiens, UniProt Q9NVM4); assay: Inhibition of human PRMT7 using GST-GAR as substrate and SAM as cofactor by radiometric HotSpot assay
T6 sequence (Q9NVM4 whole entry): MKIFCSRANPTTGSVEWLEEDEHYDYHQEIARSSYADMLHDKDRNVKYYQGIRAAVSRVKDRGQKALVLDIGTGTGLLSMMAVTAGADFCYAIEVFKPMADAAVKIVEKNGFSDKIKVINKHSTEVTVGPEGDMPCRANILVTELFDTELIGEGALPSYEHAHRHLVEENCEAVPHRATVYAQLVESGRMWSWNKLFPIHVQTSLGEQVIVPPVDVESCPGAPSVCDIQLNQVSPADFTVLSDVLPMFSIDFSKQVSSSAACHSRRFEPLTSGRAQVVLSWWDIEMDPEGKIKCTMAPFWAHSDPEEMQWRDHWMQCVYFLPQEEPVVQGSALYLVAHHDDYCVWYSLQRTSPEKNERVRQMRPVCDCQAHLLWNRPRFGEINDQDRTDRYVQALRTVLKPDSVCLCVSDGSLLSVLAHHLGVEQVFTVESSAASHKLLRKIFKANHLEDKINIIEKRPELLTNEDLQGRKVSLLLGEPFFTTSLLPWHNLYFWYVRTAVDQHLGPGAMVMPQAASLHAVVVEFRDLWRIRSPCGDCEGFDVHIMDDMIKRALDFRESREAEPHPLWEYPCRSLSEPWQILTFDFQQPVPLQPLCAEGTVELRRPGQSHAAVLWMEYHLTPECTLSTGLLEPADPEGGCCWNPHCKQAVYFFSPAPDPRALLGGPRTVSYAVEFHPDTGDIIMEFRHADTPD

PRMT5/MEP50 complex = PRMT5/MEP50 complex (Homo sapiens, UniProt O14744); assay: Inhibition of human PRMT5/MEP50 using Histone H2 as substrate and SAM as cofactor by radiometric HotSpot assay; format: protein-complex assay
[10] = molecular target: T2, Protein arginine N-methyltransferase 3; assay: Inhibition of human PRMT3 using Histone H3 as substrate and SAM as cofactor by radiometric HotSpot assay
Target sequence in this assay (O60678 whole entry): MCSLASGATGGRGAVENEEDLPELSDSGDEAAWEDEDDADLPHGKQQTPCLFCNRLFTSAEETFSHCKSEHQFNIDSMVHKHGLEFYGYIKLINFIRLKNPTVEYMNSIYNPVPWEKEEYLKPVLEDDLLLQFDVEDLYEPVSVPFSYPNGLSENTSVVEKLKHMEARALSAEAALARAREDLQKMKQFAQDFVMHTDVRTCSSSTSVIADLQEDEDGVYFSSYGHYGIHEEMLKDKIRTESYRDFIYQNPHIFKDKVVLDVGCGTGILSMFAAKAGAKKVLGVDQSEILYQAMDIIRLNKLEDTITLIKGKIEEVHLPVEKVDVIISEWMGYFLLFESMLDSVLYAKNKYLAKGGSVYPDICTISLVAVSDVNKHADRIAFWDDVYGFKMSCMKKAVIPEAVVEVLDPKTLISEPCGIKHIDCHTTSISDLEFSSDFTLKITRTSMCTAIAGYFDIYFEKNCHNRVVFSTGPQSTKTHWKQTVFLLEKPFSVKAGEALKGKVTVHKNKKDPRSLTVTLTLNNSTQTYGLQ

Chain of Protein arginine N-methyltransferase 6 (Q96LA8 whole entry, looked up): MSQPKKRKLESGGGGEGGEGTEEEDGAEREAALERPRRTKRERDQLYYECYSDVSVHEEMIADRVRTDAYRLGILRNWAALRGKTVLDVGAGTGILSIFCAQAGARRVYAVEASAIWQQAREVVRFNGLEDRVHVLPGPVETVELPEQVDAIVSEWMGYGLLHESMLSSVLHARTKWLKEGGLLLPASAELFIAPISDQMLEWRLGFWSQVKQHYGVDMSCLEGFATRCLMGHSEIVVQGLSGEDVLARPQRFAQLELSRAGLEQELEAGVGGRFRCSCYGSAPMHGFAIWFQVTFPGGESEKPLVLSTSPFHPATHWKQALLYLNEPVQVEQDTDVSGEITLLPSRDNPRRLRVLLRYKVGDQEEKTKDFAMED
Chain of PRMT5/MEP50 complex (O14744 whole entry): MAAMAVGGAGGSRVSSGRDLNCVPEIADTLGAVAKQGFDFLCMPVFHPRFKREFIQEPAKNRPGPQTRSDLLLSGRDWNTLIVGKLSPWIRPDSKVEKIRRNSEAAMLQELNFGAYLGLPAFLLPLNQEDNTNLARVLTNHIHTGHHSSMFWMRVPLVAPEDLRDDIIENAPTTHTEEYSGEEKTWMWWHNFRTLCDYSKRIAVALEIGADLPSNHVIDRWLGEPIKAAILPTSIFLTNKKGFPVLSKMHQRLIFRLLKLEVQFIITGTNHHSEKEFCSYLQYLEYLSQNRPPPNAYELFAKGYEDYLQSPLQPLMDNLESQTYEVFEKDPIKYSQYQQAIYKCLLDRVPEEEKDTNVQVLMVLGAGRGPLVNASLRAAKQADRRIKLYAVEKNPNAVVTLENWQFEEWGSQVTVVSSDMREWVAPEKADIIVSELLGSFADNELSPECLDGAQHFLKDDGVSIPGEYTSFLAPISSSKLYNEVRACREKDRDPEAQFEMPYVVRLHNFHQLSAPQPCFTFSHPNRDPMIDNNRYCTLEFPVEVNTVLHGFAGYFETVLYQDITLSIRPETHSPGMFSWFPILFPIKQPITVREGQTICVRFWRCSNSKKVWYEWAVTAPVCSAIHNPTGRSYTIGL
Chain of PRMT5/MEP50 complex (Q9BQA1 whole entry, further chain): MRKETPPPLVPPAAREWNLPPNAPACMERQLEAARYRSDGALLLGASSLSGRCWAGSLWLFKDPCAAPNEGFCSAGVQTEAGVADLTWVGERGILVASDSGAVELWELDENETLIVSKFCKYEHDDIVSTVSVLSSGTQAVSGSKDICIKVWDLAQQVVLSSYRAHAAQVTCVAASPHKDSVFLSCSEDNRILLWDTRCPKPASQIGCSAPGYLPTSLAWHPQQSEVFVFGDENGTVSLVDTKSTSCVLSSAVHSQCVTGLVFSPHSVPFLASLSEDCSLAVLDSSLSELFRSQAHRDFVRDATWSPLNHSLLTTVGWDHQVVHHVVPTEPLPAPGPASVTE

SMILES	inhibition [1]	inhibition [2] [%]	inhibition [3] [%]	inhibition [4]	inhibition [5]	pIC50 [6]	pIC50 [7]	pIC50 [8]	pIC50 [9]	pIC50 (PRMT5/MEP50 complex)	pIC50 [10]	inhibition at 10 µM (MDA-MB-231) [%]
CCCCNC(=N)NCCCSC[C@H]1O[C@@H](n2cnc3c(NCCCc4ccccc4)ncnc32)[C@H](O)[C@@H]1O	Active	< 30	70	Active	Active	–	–	–	–	–	–	–
CNCCN1CCC(c2cc(CN(C)C(=O)c3cccc(Oc4ccccc4)c3)ccn2)CC1	–	–	–	–	–	–	–	–	–	–	–	30
N=C(NCCCSC[C@H]1O[C@@H](n2cnc3c(NCCCc4ccccc4)ncnc32)[C@H](O)[C@@H]1O)NCC1CCC1	Active	< 30	70	Active	Active	–	–	–	–	–	–	–
N=C(NCCCSC[C@H]1O[C@@H](n2cnc3c(NCCCc4ccccc4)ncnc32)[C@H](O)[C@@H]1O)NC1CC1	Active	< 30	70	Active	Active	–	–	–	–	–	–	–
N=C(NCCCSC[C@H]1O[C@@H](n2cnc3c(NCCCc4ccccc4)ncnc32)[C@H](O)[C@@H]1O)NCCCc1ccccc1	Active	< 30	70	Active	Active	–	–	–	–	–	–	–
N=C(NCCCO)NCCCSC[C@H]1O[C@@H](n2cnc3c(NCCCc4ccccc4)ncnc32)[C@H](O)[C@@H]1O	Active	< 30	70	Active	Active	–	–	–	–	–	–	–
N=C(NCCCN)NCCCSC[C@H]1O[C@@H](n2cnc3c(NCCCc4ccccc4)ncnc32)[C@H](O)[C@@H]1O	Active	< 30	70	Active	Active	–	–	–	–	–	–	–
CNC[C@@H](O)COc1ccc(Cl)c(-c2nc(-c3c(C)noc3C)c(C)c(N3CC4(CCN(C(=O)OC)CC4)C3)n2)c1	–	–	–	–	–	–	–	–	–	–	–	30
N=C(N)NCCC[C@H](N)C(=O)NCC(=O)N[C@@H](CCCN)C(=O)N[C@@H](CCCNC(=N)NCCCSC[C@H]1O[C@@H](n2cnc3c(N)ncnc32)[C@H](O)[C@@H]1O)C(=O)O	–	–	–	–	–	8.55	5.23	< 5.00	5.08	9.38	< 5.00	–
N=C(NCCCSC[C@H]1O[C@@H](n2cnc3c(NCCCc4ccccc4)ncnc32)[C@H](O)[C@@H]1O)NCCc1ccccc1	Active	< 30	70	Active	Active	–	–	–	–	–	–	–
N=C(NCCCSC[C@H]1O[C@@H](n2cnc3c(NCCCc4ccccc4)ncnc32)[C@H](O)[C@@H]1O)NCC1CC1	Active	< 30	70	Active	Active	–	–	–	–	–	–	–
N=C(NCCCSC[C@H]1O[C@@H](n2cnc3c(NCCCc4ccccc4)ncnc32)[C@H](O)[C@@H]1O)NC1CCCC1	Active	< 30	70	Active	Active	–	–	–	–	–	–	–
N=C(NCCCSC[C@H]1O[C@@H](n2cnc3c(NCCCc4ccccc4)ncnc32)[C@H](O)[C@@H]1O)NC1CCC1	Active	< 30	70	Active	Active	–	–	–	–	–	–	–
N=C(NCCCSC[C@H]1O[C@@H](n2cnc3c(NCCCc4ccccc4)ncnc32)[C@H](O)[C@@H]1O)NC1CCCCC1	Active	< 30	70	Active	Active	–	–	–	–	–	–	–

The next lines start with results.

inhibition [1]	inhibition [2] [%]	inhibition [3] [%]	inhibition [4]	inhibition [5]	pIC50 [6]	pIC50 [7]	pIC50 [8]	pIC50 [9]	pIC50 (PRMT5/MEP50 complex)	pIC50 [10]	SMILES	inhibition at 10 µM (MDA-MB-231) [%]
27%	3	< 30	< 50%	70%	–	–	–	–	–	–	Nc1cccc(-c2ccc(CNC(=O)NCCSC[C@H]3O[C@@H](n4cnc5c(N)ncnc54)[C@H](O)[C@@H]3O)cc2)c1	–
27%	3	< 30	< 50%	70%	–	–	–	–	–	–	Nc1ncnc2c1ncn2[C@@H]1O[C@H](CSCCNC(=O)NCc2ccc(-c3ccc(O)cc3)cc2)[C@@H](O)[C@H]1O	–
27%	3	< 30	< 50%	70%	–	–	–	–	–	–	Nc1ncnc2c1ncn2[C@@H]1O[C@H](CSCCCNC(=O)NCc2ccc3c(c2)OCO3)[C@@H](O)[C@H]1O	–
Active	< 30	70	Active	Active	–	–	–	–	–	–	N=C(NCCCSC[C@H]1O[C@@H](n2cnc3c(NCCCc4ccccc4)ncnc32)[C@H](O)[C@@H]1O)NCc1ccccc1	–
27%	3	< 30	< 50%	70%	–	–	–	–	–	–	Nc1ncnc2c1ncn2[C@@H]1O[C@H](CSCCNC(=O)NCc2ccc(-c3cccc(O)c3)cc2)[C@@H](O)[C@H]1O	–
> 90%	< 30	> 50	–	50%	8.92	–	–	–	–	–	Nc1ncnc2c1ncn2[C@@H]1O[C@H](CSCCNCc2cccc(-c3ccoc3)c2)[C@@H](O)[C@H]1O	–
> 90%	> 50	< 30	< 50%	70%	–	–	–	–	–	–	Nc1ncnc2c1ncn2[C@@H]1O[C@H](CSCCNC(=O)NCc2ccccc2)[C@@H](O)[C@H]1O	–
–	< 30	< 50	inactive	< 50%	–	–	–	–	–	–	Nc1ncnc2c1ncn2[C@@H]1O[C@H](CSCCOc2ccc(-c3ccc(Cl)cc3)cc2)[C@@H](O)[C@H]1O	–
27%	3	< 30	< 50%	70%	–	–	–	–	–	–	Nc1ccc(-c2ccc(CNC(=O)NCCSC[C@H]3O[C@@H](n4cnc5c(N)ncnc54)[C@H](O)[C@@H]3O)cc2)cc1	–
Active	< 30	70	Active	Active	–	–	–	–	–	–	N=C(NCCCSC[C@H]1O[C@@H](n2cnc3c(NCCCc4ccccc4)ncnc32)[C@H](O)[C@@H]1O)Nc1ccccc1	–
> 90%	< 30	> 50	–	50%	8.03	–	–	–	–	–	Nc1ncnc2c1ncn2[C@@H]1O[C@H](CSCCNCc2cccc(-c3cncnc3)c2)[C@@H](O)[C@H]1O	–
> 90%	< 30	> 50	–	50%	7.31	–	–	–	–	–	Nc1ncnc2c1ncn2[C@@H]1O[C@H](CSCCCNCc2cccc(-c3cncnc3)c2)[C@@H](O)[C@H]1O	–
–	< 30	< 50	inactive	> 70%	–	–	–	–	–	–	COc1cc2nc(-c3ccc(O)cc3)nc(NCCSC[C@H]3O[C@@H](n4cnc5c(N)ncnc54)[C@H](O)[C@@H]3O)c2cc1OC	–
–	< 30	< 50	inactive	< 50%	–	–	–	–	–	–	Nc1ncnc2c1ncn2[C@@H]1O[C@H](CSCCOc2ccc(-c3ccncc3)cc2)[C@@H](O)[C@H]1O	–
